Results from PMC5992111, “Heterocyclization of polarized system: synthesis, antioxidant and anti-inflammatory 4-(pyridin-3-yl)-6-(thiophen-2-yl) pyrimidine-2-thiol derivatives” (Chemistry Central Journal, 2018).
Marks after values point to notes of the source that are not given here.

Key:
[1] = DPPH free radical scavenging assay; conditions: for scavenging activity towards the DPPH radicals (in words): compared with ascorbic acid
Procedure: • DPPH free radical scavenging assay was determined (4). Ascorbic acid was used as reference standard antioxidant.

[2] = system: lipid peroxidation; experiment: Lipid peroxidation assay
Procedure: • Lipid peroxidation assay (5 and 6) was calculated as IC50 and recorded in Table 3.

[3] = target: T1, ovine COX-1 (Ovis aries, UniProt P05979); experiment: In vitro COX-1 inhibition, colorimetric ovine COX-1/COX-2 inhibitor screening assay kit; assay type: biochemical; conditions: for IC50: means of three determinations, read at 590 nm, read-out: IC 50 (µM) COX-1; for inhibitory activity against COX-1 (in words): compared with the standard drug celecoxib
T1 construct: purchased
T1 sequence (P05979 25-600): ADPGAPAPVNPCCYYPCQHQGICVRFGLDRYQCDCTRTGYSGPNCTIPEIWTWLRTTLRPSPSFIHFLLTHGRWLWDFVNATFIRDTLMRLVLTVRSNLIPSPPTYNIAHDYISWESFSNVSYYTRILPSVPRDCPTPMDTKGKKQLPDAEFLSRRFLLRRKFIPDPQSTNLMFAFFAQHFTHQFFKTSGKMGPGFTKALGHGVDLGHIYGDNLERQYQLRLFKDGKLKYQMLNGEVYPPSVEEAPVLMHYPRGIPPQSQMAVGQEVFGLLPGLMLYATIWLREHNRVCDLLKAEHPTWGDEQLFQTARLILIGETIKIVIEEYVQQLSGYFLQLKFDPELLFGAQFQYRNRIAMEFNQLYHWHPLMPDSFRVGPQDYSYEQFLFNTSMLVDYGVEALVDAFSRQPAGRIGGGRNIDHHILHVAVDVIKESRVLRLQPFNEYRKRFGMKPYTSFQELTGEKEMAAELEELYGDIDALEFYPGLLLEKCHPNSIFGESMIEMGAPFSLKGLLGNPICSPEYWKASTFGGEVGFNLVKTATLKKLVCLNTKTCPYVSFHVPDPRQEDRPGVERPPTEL

[4] = target: T2, ovine COX-2 (Ovis aries, UniProt P79208); experiment: In vitro COX-2 inhibition, colorimetric ovine COX-1/COX-2 inhibitor screening assay kit; assay type: biochemical; conditions: for COX-1/COX-2 selectivity index: IC50 (COX-1)/IC50 (COX-2); for IC50: means of three determinations, read at 590 nm, read-out: IC 50 (µM) COX-2; for inhibitory activity against COX-2 (in words): compared with the standard drug celecoxib
T2 construct: purchased
T2 sequence (P79208 17-603): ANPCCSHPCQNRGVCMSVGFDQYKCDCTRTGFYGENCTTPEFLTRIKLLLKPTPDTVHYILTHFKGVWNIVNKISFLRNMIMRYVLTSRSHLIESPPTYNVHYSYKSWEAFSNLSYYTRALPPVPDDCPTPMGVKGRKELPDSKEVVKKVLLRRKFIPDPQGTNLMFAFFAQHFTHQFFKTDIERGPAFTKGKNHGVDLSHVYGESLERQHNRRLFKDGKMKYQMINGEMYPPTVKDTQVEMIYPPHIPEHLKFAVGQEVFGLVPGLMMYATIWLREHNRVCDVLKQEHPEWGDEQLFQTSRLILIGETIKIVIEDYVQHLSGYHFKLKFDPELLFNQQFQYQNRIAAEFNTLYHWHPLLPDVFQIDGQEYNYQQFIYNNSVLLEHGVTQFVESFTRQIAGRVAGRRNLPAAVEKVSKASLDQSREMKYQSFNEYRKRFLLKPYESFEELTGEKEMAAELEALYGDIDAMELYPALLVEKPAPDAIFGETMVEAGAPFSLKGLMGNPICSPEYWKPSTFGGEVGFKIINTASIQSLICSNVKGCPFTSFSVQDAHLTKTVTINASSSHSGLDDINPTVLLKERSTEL

[5] = system: carrageenan induced rat paw edema; experiment: Carrageenan induced rat paw edema; assay type: in vivo; conditions: mean ± SD
Procedure: Carrageenan induced rat paw edema in rats: Fifty rats were divided into ten groups (i.e., each group, five rats). The first group (control), received carboxymethyl cellulose. The second group was given diclofenac sodium as a standard anti-inflammatory drug. Groups (3–10) were orally given the newly synthesized compounds (3–6) in two dosages (5 and 10 mg/kg). Results were expressed as rat paw edema percent. One hour later after administration of tested doses, carrageenan was injected sub planter in the left hind footpad of each rat as 0.05 ml of 1% solution in sterile distilled water. Plethysmometer was used to measure paw edema volume from 0 to 4 h after carrageenan injection. Paw edema volume was compared with vehicle control group and reduction percent was calculated as the following %reduction in edema=1-Vt Vc×100 Where Vt and Vc are the edema volume in the group treated with drug and control, respectively. Results were expressed as mean ± standard deviation (SD). Differences between means were tested for significance using a one-way analysis of variance (ANOVA) followed by Duncan’s test (Table 2).

[6] = 5 mg/kg.b.wt oral, 0 h after carrageenan
[7] = 5 mg/kg.b.wt oral, 1 h after carrageenan
[8] = 5 mg/kg.b.wt oral, 2 h after carrageenan
[9] = 5 mg/kg.b.wt oral, 3 h after carrageenan
[10] = 5 mg/kg.b.wt oral, 4 h after carrageenan
[11] = 10 mg/kg.b.wt oral, 0 h after carrageenan
[12] = 10 mg/kg.b.wt oral, 1 h after carrageenan
[13] = 10 mg/kg.b.wt oral, 2 h after carrageenan
[14] = 10 mg/kg.b.wt oral, 3 h after carrageenan
[15] = 10 mg/kg.b.wt oral, 4 h after carrageenan

Row | Structure (SMILES) | IC50 (μg/ml) for DPPH Scavenging [1] | IC50 (μg/ml) for anti-lipid peroxidation [2] | IC50 [3] | melting point | COX-1/COX-2 selectivity index [4] | IC50 [4] | Inhibition percent of rat paw edema [5, 6] | Inhibition percent of rat paw edema [5, 7] | Inhibition percent of rat paw edema [5, 8] | Inhibition percent of rat paw edema [5, 9] | Inhibition percent of rat paw edema [5, 10] | Inhibition percent of rat paw edema [5, 11] | Inhibition percent of rat paw edema [5, 12] | Inhibition percent of rat paw edema [5, 13] | Inhibition percent of rat paw edema [5, 14] | Inhibition percent of rat paw edema [5, 15] | other results
1 | O=C1O[C@H]([C@@H](O)CO)C(O)=C1O [Ascorbic acid, reference compound] | 13.71 ± 0.75 µg/mL | 25.72 ± 1.23 µg/mL |  |  |  |  |  |  |  |  |  |  |  |  |  |  | 
2 | O=C(/C=C/c1cccs1)c1cccnc1 [Compound 3, (E)-1-(pyridin-3-yl)-3-(thiophen-2-yl) prop-2-en-1-one] | 10.72 ± 0.54 µg/mL | 16.81 ± 2.71 µg/mL | 3.7 µM | 256 to 258 °C | 9.49 | 0.39 µM | 0.48 ± 0.027^ab % | 21.72 ± 0.79^b % | 22.79 ± 1.07^d % | 24.79 ± 0.49^c % | 28.41 ± 1.30^c % | 0.47 ± 0.04^ab % | 31.98 ± 9.35^a % | 29.93 ± 1.43^b % | 34.16 ± 0.61^b % | 41.15 ± 0.750^a % | scavenging activity towards the DPPH radicals (in words) [1]: higher scavenging activity towards the DPPH radicals than that of ascorbic acid
3 | S=c1nc(-c2cccnc2)cc(-c2cccs2)[nH]1 [Compound 4, 4-(pyridin-3-yl)-6-(thiophen-2-yl) pyrimidine-2(1H)-thione] | 12.64 ± 0.41 µg/mL | 22.53 ± 3.25 µg/mL | 4.02 µM | 220 to 225 °C | 9.13 | 0.44 µM | 0.46 ± 0.03^b % | 18.91 ± 1.19^bc % | 20.07 ± 1.43^e % | 21.96 ± 1.25^d % | 27.38 ± 1.68^c % | 0.49 ± 0.01^ab % | 21.43 ± 0.96^b % | 26.27 ± 49^e % | 33.13 ± 2.64^b % | 37.15 ± 0.69^b % | scavenging activity towards the DPPH radicals (in words) [1]: higher scavenging activity towards the DPPH radicals than that of ascorbic acid
4 | NNc1nc(-c2cccnc2)cc(-c2cccs2)n1 [Compound 5, 1-(4-(pyridin-3-yl)-6-(thiophen-2-yl)pyrimidin-2-yl)hydrazine] | 14.61 ± 0.72 µg/mL | 23.62 ± 2.31 µg/mL | 4.6 µM | 180 to 182 °C | 5.29 | 0.87 µM | 0.49 ± 0.01^a % | 11.62 ± 1.24^de % | 14.61 ± 1.81^g % | 18.41 ± 1^e % | 19.48 ± 0.89^e % | 0.48 ± 0.01^ab % | 15.41 ± 0.83^cd % | 18.83 ± 0.75^ef % | 24.19 ± 1.59^c % | 28.59 ± 2.26^c % | inhibitory activity against COX-1 (in words) [3]: nearly like that of the standard drug; inhibitory activity against COX-2 (in words) [4]: nearly like that of the standard drug
5 | N#Cc1c(-c2cccs2)cc(-c2cccnc2)oc1=O [Compound 6, 2-oxo-6-(pyridin-3-yl)-4-(thiophen-2-yl)-2H-pyran-3-carbonitrile] | 15.26 ± 0.44 µg/mL | 22.67 ± 3.51 µg/mL | 4.95 µM | 210 to 212 °C | 5.89 | 0.84 µM | 0.50 ± 0.02^a % | 9.61 ± 1.12^e % | 12.28 ± 1.38^h % | 17.19 ± 1.26^e % | 18.51 ± 2.26^e % | 0.49 ± 0.01^a % | 13.75 ± 1.15^de % | 17.52 ± 1.13^f % | 20.43 ± 0.65^d % | 22.39 ± 1.16^d % | inhibitory activity against COX-1 (in words) [3]: nearly like that of the standard drug; inhibitory activity against COX-2 (in words) [4]: nearly like that of the standard drug
6 | Cc1cc(=O)oc2c1c(C)nn2-c1nc(-c2cccnc2)cc(-c2cccs2)n1 [Compound 8, 3,4-dimethyl-1-(4-(pyridin-3-yl)-6-(thiophen-2-yl)pyrimidin-2-yl)pyrano[2,3-c]pyrazol-6(1H)-one] |  |  |  | 190 to 192 °C |  |  |  |  |  |  |  |  |  |  |  |  | 
7 | CC1=NN(c2nc(-c3cccnc3)cc(-c3cccs3)n2)C(=O)C1 [Compound 9, 3-methyl-1-(4-(pyridin-3-yl)-6-(thiophen-2-yl)pyrimidin-2-yl)-1H-pyrazol-5(4H)-one] |  |  |  | 225 to 227 °C |  |  |  |  |  |  |  |  |  |  |  |  | 
8 | O=C(O)Cc1ccccc1Nc1c(Cl)cccc1Cl [Diclofenac sodium, diclofenac sodium, reference compound] |  |  |  |  |  |  |  |  |  |  |  |  |  |  |  |  | Inhibition percent of rat paw edema ([5]; standard drug, dose not given, 0 h after carrageenan): 0.49 ± 0.032^a %; Inhibition percent of rat paw edema ([5]; standard drug, dose not given, 1 h after carrageenan): 30.22 ± 1.27^a %; Inhibition percent of rat paw edema ([5]; standard drug, dose not given, 2 h after carrageenan): 33.85 ± 1.19^a %; Inhibition percent of rat paw edema ([5]; standard drug, dose not given, 3 h after carrageenan): 36.21 ± 0.93^a %; Inhibition percent of rat paw edema ([5]; standard drug, dose not given, 4 h after carrageenan): 41.10 ± 3.98^a %
